The values below come from patent publication US7261906B2, “Anti-cancer therapy agent of arsenic hexoxide (As4O6) of a natural chemical substance and its pharmaceutical composition” (priority 1998, dated 2007).

In one assay the test system is 3T3-fibroblast cells. The experiment in a line: Cytotoxicity in 3T3-fibroblast cells, time course (XTT method). It counts as cell-based, murine. How it is done:
Cloned tumor cells of P388 leukemia, L1210 leukemia, L5178Y lymphoma, Colon26-M3.1 carcinoma, and B16-BL6 melanoma, from mice, and K562 leukemia, liver carcinoma HEP-G2, Hs578T breast cancer, AN-3-CA adenocarcinoma, DLD colon carcinoma, and HeLa epitheloid carcinoma, from human beings, were cultured in EMM, DMEM, or RMPI-1640 culture media containing 7.5% fetal bovine serum (FBS), as described in ATCC manual. […] Tumor cells in test wells were incubated in 5% CO2 incubator at 37° C. for 2 days.
For further study of the cytotoxicity of each substance on cloned tumor cells, 3T3-fibroblast cells were cultured in test wells as described in experiment 1.

Assay [1] deals with colon26-M3.1 carcinoma cells. In words: Inhibitory effect of intravenously-administered HD-2 on cancer metastasis (lung). It counts as in vivo, mice. How it is done: B16-BL6 melanoma cells or colon26-M3.1 carcinoma cells were inoculated into mice and number of metastatic tumor masses appearing in lungs was counted. […] The peak activity was observed a: 1-mg dose with very high anticancer efficacy (86%). […] This indicated oral administration of HD-2 was quite effective for treatment of established cancer.
In this experiment, HD-2 was administered intravenously with dosage less than 500 mg/kg body weight per day.

The mark [2] stands for this setting: 1 μg intravenous administration +1.
The mark [3] stands for this setting: 10 μg intravenous administration +1.
[4] abbreviates: 10 μg intravenous administration +7.
[5] abbreviates: 100 μg intravenous administration +1.

Consider `N.N.[Cl][Pt][Cl]` [cisplatin, reference compound], for which, in the assay with 3T3-fibroblast cells (3T3, 34 hours of treatment), the “morphological observation of cells” value is recorded as “partial necrosis of tumor cells or slowing of tumor growth”. Further, in the assay with 3T3-fibroblast cells (3T3, after 24 hours of administration), the tumor growth entry is listed as “partial inhibition of tumor growth”. For the same molecule, the inhibitory rate in assay [1] (setting [2]) was found to be 34.2%; in assay [1] (setting [3]) it was 87.1%; in assay [1] (setting [4]) it was 50.0%; in assay [1] (setting [5]), 63.2%. The “number of metastatic mass, mean ± SD” value is reported as 102 ± 28 in assay [1] (setting [2]), 20 ± 13 in assay [1] (setting [3]), 77 ± 12 in assay [1] (setting [4]) and 57 ± 22 in assay [1] (setting [5]).
